Source: patent US20240156800A1, “EP300 DEGRADER AND USES THEREOF IN NEUROBLASTOMA” (DANA-FARBER CANCER INSTITUTE, INC., priority 2021, published 2024)

Key:
[1] = molecular target: His-tagged CRBN (Homo sapiens, UniProt Q96SW2); assay: AlphaLISA assay with biotinylated pomalidomide and His-tagged CRBN; assay type: binding; details: competition with biotinylated pomalidomide
Procedure: To determine whether JQAD1 interacts with the E3 ligase receptor CRBN, the AlphaLISA® platform was used to perform AlphaLISA® fluorescent assays using biotinylated pomalidomide bound to beads and His-tagged CRBN (Yasgar et al. Methods Mol. Biol. 1439:77-98 (2016)). […] Next, biotinylated JQAD1 (Biotin-JQAD1, Scheme 2) was synthesized and incubated with Kelly cell lysates, followed by streptavidin-based purification. […] PROTAC®s may acquire preferential specificity for one of two possible target enzymes due to restricted three-dimensional interactions, as noted in Burslem and Crews, Cell 181:102-14 (2020).
Assays were performed with minimal modifications from the manufacturer's protocol (PerkinElmer®, USA). Briefly, a 2× solution of components with final concentrations of CRBN-DDB1 at 50 nM, Ni-coated Acceptor Beads at 20 μg/ml, and 15 nM biotinylated-pomalidomide were added in […] to 384-well plates (AlphaPlate-384, PerkinElmer®, USA). 100 nL of compound in DMSO from stock plates were added by pin transfer using a Janus Workstation (PerkinElmer®, USA). Streptavidin-coated donor beads (20 μg/ml final) were added to the solution, followed by incubation at room temperature for 1 hour, and reading on an Envision 2104 (PerkinElmer®, USA), by the manufacturer's protocol.

[2] = tested on: MYCN; assay: Western blotting of MYCN (whole lysates and chromatin extracts); assay type: cell-based, human
Procedure: (§1) Cells growing in culture were lysed for whole cell lysates as described in Durbin et al. Nat. Genet. 50:1240-1246 (2018) and Wang et al. Nat. Commun. 10:5622 (2019). Nuclear lysates were prepared using the NE-PER® nuclear lysate kit (Thermo Scientific™) according to the manufacturer's protocol. Chromatin lysates were prepared with the total histone extraction kit (Epigentek). Briefly, equivalent amounts of protein were resolved by western blotting using 4-12% Bis-Tris NuPAGE™ gels (Thermo-Fisher Scientific) prior to transfer, and immunoblotting using primary antibodies to: MYCN (1:1000, Cell Signaling Technology®), H3K27ac (1:1000, Abcam), total H3 (1:1000, Cell Signaling Technology®), EP300 (1:1000, Abcam), CBP (1:500, Cell Signaling Technology®), Cas9 (1:1000, Cell Signaling Technology®), cleaved-PARP1 (1:1000, Cell Signaling Technology), cleaved Caspase-3 (1:1000, Cell Signaling Technology®), β-actin (1:1000, Cell Signaling Technology®), GATA3 (1:1000, EMD Millipore™), TFAP2β (1:1000, Cell Signaling Technology®), Vinculin (1:1000, EMD Millipore™), CRBN (1:1000, Cell Signaling Technology®), HAND2 (1:1000, Santa Cruz Biotechnology). Secondary antibodies were horseradish peroxidase (HRP)-conjugated anti-rabbit or anti-mouse (1:5000, Santa Cruz Biotechnology), incubated prior to exposure to enhanced chemiluminescence reagents (GE, Amersham). For immunoprecipitation, equal amounts of protein were diluted in buffer C as described in Mansour et al. Science 346:1373-1377 (2014) and incubated with antibodies covalently conjugated to Dynabeads™ M-270 beads (Thermo-Fisher Scientific) overnight according to the manufacturer's directions. Antibodies used included: H3K27ac, EP300 (Abcam), CBP, TFAP2β (Cell Signaling Technology®), rabbit immunoglobulin G (IgG) (Santa Cruz Biotechnology®). Immunoprecipitated protein was isolated as per the manufacturer's directions and subjected to western blotting, as described above, or mass spectrometry.

[3] = tested on: Kelly, NGP and BE2C NB cells; assay: Propidium iodide DNA flow cytometry (cell cycle, sub-G1); assay type: cell-based, human
Procedure: Cells were infected with lentiviruses encoding single guide RNAs (sgRNAs) or treated with compounds as described for the noted length of time. Cells were then liberated from adhesion to the plate using a sterile spatula (Coming®) followed by centrifugation, aspiration of media, and resuspension in hypotonic citrate-propidium iodide (PI) solution for 30 minutes at 37° C. (Tate et al. Cytometry 4:211-215 (1983)). Nuclei were stabilized using 5M NaCl prior to analysis on a FACSAria™ II (BD Biosciences). Analysis of cell cycle phases was performed using FlowJo® v10.7 (BD Biosciences).

[4] = tested on: H3K27ac; assay: Western blotting of H3K27ac in treated NB cells; assay type: cell-based, human
Procedure: as §1

[5] = tested on: Kelly-Cas9 control or CRBN knockout cells; assay: CellTiter-Glo assay of Kelly-Cas9 control or CRBN knockout cells; assay type: cell-based, human; details: range of doses, seven days
Procedure: (§2) Cells were infected with lentiviruses encoding sgRNAs or treated with compounds as described. Colony assays were performed by replating cells at 500 cells per well in 6-well dishes and grown in regular growth media for 10 d before 100% methanol fixation, 0.05% crystal violet staining, and quantitation. Experiments were completed in triplicate; data shown are the average of three independent experiments. Cell Titer-Glo® assay was performed as per the manufacturer's instructions (Promega®). Briefly, 1000 cells/well were plated into 96-well plates and treated with a range of compound dosing. Cell viability was measured at the noted time points based on luminescence by the Cell Titer-Glo® assay (Promega®) and read on an Envision 2104 (PerkinElmer®, USA) according to the manufacturer's protocol.
sgRNAs targeting individual genes were subcloned by standard methodologies within pLKO.5-EFGP. Kelly, SIMA, BE2C, and NGP cells were infected with lenticas9 followed by blasticidin selection. Stable expression of cas9 was established by western blotting of protein lysates using cas9 antibody (Cell Signaling Technology®). Following infection of pLKO.5-EGFP-sgRNA lentivirus, cells were cultured for the identified times prior to evaluation. BE2C cells were infected with pLC-zsgreen or pLC-CRBN lentiviruses and selected using 500 μg/mL hygromycin (Invitrogen™)

[6] = tested on: NB cell lines; assay: Colony formation assays of NB cells with EP300/CBP inhibitors; assay type: cell-based, human; details: multiple NB cell lines (Kelly, BE2C, NB69, NGP); compared with C646 and CBP30
Procedure: as §2

[7] = tested on: cleaved caspase-3 and cleaved PARP1; assay: Western blotting of apoptosis markers; assay type: cell-based, human
Procedure: as §1

[8] = tested on: pro- and anti-apoptotic mRNA transcripts; assay: ERCC spike-in RNA-seq of treated Kelly cells; assay type: cell-based, human; details: 500 nM, 24 h
Procedure: For in vitro analyses, total RNA was extracted from control […] or JQAD1 treated Kelly cells using TRIzolTM reagent (Ambion). Prior to extraction, exogenous spike-in of synthetic External RNA Control Consortium (ERCC) RNA controls were added based on cell number (Ambion). Samples were treated with RNAse-free DNAse I and spin purified using the Qiagen® RNeasy Kit (Qiagen®). Purified RNA samples were subjected to library construction with poly-adenylation preparation and sequencing using the Illumina NextSeq® 500 (paired end, 75bp reads). RNA-seq reads were aligned to a reference index containing the sequences of the hg19 revision of the human reference genome and the ERCC spike-in probes using hisat 2.1.0. Expression was quantified using sorted BAMs, a gene reference built using ERCC sizes and RefSeq genes downloaded Jul. 15, 2017, and htseq-count with parameters -I gene_id- stranded=reverse -f bam -m intersection-strict. Read counts were converted to transcripts per million (TPM) and used for cell number-normalization. The expression of all RefSeq genes and ERCC probes was floored at 0.01 and a pseudocount of 0.1 was added to all entries. Values were normalized by equilibrating the expression of the ERCC probes among experiments using normalize.loess from the affy R package. The ERCC-normalized expression of each gene after 24 h of either […] or JQAD1 treatment was compared against its expression in dimethyl sulfoxide (DMSO) treated samples to create two-fold changes.

[9] = BE2C 1 μM, Kelly 500 nM, seven days

Chain of His-tagged CRBN (Q96SW2 whole entry): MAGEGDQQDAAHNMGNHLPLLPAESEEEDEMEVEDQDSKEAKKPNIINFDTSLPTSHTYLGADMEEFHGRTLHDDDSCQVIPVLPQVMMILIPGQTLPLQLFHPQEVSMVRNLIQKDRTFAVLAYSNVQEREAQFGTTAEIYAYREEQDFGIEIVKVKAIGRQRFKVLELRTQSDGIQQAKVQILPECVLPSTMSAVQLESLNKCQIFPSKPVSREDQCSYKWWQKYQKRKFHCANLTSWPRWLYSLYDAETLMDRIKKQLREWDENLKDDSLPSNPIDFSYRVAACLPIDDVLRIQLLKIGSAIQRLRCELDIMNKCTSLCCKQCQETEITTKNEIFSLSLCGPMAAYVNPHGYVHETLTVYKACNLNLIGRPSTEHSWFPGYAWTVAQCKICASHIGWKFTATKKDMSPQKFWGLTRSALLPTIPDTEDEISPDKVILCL
Chain of His-tagged CRBN (Q16531 whole entry partner): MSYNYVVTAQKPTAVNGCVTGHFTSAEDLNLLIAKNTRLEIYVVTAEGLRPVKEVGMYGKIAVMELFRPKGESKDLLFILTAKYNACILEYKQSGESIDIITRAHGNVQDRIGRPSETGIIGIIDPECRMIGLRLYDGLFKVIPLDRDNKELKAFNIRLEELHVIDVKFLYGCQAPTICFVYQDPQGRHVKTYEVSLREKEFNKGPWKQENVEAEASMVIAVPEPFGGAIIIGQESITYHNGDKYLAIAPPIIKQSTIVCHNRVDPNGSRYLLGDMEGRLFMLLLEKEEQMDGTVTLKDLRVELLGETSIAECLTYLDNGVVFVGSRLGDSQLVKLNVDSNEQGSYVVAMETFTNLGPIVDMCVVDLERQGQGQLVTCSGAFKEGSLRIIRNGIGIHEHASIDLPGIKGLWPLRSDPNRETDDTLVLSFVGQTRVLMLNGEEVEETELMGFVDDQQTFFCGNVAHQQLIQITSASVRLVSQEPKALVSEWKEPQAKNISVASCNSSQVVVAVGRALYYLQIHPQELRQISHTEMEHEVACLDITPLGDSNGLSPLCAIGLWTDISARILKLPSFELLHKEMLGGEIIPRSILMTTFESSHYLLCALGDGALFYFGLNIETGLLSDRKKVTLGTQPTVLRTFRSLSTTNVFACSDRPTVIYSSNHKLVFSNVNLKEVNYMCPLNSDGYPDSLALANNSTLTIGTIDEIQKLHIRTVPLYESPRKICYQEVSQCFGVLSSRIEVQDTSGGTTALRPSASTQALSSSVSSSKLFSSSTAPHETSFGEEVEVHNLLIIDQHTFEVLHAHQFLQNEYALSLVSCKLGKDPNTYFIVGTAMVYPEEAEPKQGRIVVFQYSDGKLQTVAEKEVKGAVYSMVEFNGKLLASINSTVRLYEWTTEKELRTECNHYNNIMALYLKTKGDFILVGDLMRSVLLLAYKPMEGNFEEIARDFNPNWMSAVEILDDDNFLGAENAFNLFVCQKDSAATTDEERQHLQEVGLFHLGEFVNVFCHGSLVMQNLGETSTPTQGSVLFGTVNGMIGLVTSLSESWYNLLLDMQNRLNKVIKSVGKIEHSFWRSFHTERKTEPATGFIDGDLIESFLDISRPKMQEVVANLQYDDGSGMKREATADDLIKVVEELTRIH

| Structure (SMILES) | interaction with CRBN [1] | MYCN expression after prolonged treatment [2, 9] | chromatin-bound MYCN ([2]; Kelly cells, 0.5 and 1 μM, 24 h, chromatin extracts) | cell cycle effect ([3]; BE2C, Kelly, NGP cells, within 24 hours) | cell cycle / subG1 effect ([3]; Kelly and NGP cells) | H3K27Ac modification after prolonged treatment [4, 9] | H3K27ac modification ([4]; Kelly cells, 24 h) | growth of CRBN-knockout Kelly cells [5] | growth of control-edited Kelly cells [5] | reduction of neuroblastoma colony formation [6] | cleaved caspase 3 and PARP1 after prolonged treatment [7, 9] | apoptosis: cleavage of caspase-3 and PARP1 ([7]; Kelly (1 μM) and NGP (2.5 μM) cells, 12-36 h) | transcript levels of BIM, BID, PUMA, BAX, BCL2 and MCL1 [8] |
| --- | --- | --- | --- | --- | --- | --- | --- | --- | --- | --- | --- | --- | --- |
| Nc1cccc2c1C(=O)N(C1CCC(=O)NC1=O)C2=O (centres unmarked) [pomalidomide] | efficiently interacted with CRBN |  |  |  |  |  |  |  |  |  |  |  |  |
| CNC(=O)Nc1ccc2c(c1)CC[C@@]21OC(=O)N(CC(=O)N(Cc2ccc(F)cc2)[C@@H](C)C(F)(F)F)C1=O [A485] | did not | loss of MYCN expression | did not show MYCN loss from chromatin extracts up to 1.0 μM | G1 cell cycle arrest | G1 cell cycle arrest | global loss of the H3K27Ac modification | loss of H3K27ac | equivalently inhibited the growth of both CRBN-knockout cells and controls | equivalently inhibited the growth of both CRBN-knockout cells and controls | most potent compound in reducing neuroblastoma colony formation | induction of cleaved caspase 3 and poly [ADP-ribose] polymerase 1 (PARP1) | little effect on these parameters | unaffected |
